Experimental data taken from US20230404922A1, “MICROSPHERE FORMULATIONS COMPRISING BTK INHIBITORS AND METHODS FOR MAKING AND USING THE SAME” (Oakwood Laboratories, LLC, priority 2021, published 2023).

How the values were obtained:
[1] = cited from earlier work

SMILES: C=CC(=O)N1CCC[C@@H](n2nc(-c3ccc(Oc4ccccc4)cc3)c3c(N)ncnc32)C1 [ibrutinib, Ibrutinib]
- solubility in dichloromethane (DCM) (DCM): > 300 mg/g
- aqueous solubility (water): < 2.5 mg/g
- pKa [1]: about 3.74
